Patent US6384254B1, “Quaternary ammonium salt-containing polysiloxane, making method, and fiber or fabric treating agent composition” (Shin-Etsu Chemical Co., Ltd., priority 1999, dated 2002)

System: stephelococcus Aureus
Assay: percentage loss of bacteria on treated cloth after ten launderings, shaking flask method
Type: cell-based
Settings: polyester/cotton (65%/35%) cloth dipped in treating bath (2.0 wt% silicone solids; CE1 3.5 wt% solids), laundered ten times by 103 method of JIS L-0217
Experimental: The emulsion was diluted to an aqueous solution having a silicone solid concentration of 2.0% by weight. A polyester/cotton (65%/35%) mixed broad-cloth was dipped in the solution for one minute, nipped through rolls at a nip rate of 100%, dried at 135° C. for one minute and heat treated at 165° C. for 2 minutes. The thus treated cloth was laundered ten times in accordance with the 103 method of JIS L-0217 whereupon a percentage loss of stephelococcus Aureus was compared by the shaking flask method. The texture of the treated cloth was examined by finger touch before and after washing.
For comparison purpose, using a 38% solids methanol solution of 3-(trimethoxysilyl)propyldimethyloctadecylammonium chloride, a 3.5 wt% solids aqueous solution was prepared. A similar experiment was carried out. This is Comparative Example 1.

Compound: CCCCCCCCCCCCCCCCCC[N+](C)(C)CCC[Si](OC)(OC)OC.[Cl-] [CE1, 3-(trimethoxysilyl)propyldimethyloctadecylammonium chloride]
- Bacteria loss after washing (%): 35%
